According to ChEMBL document CHEMBL4425175, “Synthesis and preliminary in vitro kinase inhibition evaluation of new diversely substituted pyrido[3,4-g]quinazoline derivatives” (Bioorg Med Chem Lett, 2016):
Each block holds one compound with its values, some of them ahead of it.

Columns and labels:
[1] = molecular target: Cyclin-dependent kinase 5/CDK5 activator 1 (Homo sapiens) (UniProt Q00535+Q15078); assay: Inhibition of human recombinant CDK5/p25 using histone1 as substrate at 10 uM after 30 mins in presence of [gamma33P] ATP by scintillation counting; assay type: protein-complex assay
Sequence of Cyclin-dependent kinase 5/CDK5 activator 1 (Homo sapiens) (Q00535 whole entry, the tested form may be a part): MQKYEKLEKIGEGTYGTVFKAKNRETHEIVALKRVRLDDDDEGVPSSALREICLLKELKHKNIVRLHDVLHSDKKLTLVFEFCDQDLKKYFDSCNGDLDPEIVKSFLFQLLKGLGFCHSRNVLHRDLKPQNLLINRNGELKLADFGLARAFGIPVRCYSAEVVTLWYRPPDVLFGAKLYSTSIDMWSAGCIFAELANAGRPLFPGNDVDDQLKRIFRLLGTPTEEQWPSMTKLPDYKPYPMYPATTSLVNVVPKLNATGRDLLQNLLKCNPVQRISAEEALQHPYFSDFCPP
Sequence of Cyclin-dependent kinase 5/CDK5 activator 1 (Homo sapiens) (Q15078 99-307 partner limits assumed): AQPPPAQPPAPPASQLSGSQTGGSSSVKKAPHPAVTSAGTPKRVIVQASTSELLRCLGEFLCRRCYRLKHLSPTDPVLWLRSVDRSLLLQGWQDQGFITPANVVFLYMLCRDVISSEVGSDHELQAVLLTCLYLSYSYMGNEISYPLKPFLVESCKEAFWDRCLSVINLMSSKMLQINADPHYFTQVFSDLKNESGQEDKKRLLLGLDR

[2] = molecular target: Dual specificity protein kinase CLK1 (Homo sapiens) (UniProt P49759); assay: Inhibition of GST-fused human recombinant CLK1 expressed in Escherichia coli using GRSRSRSRSRSR peptide as substrate at 10 uM
Sequence of Dual specificity protein kinase CLK1 (Homo sapiens) (P49759 whole entry, looked up, the tested form may be a part): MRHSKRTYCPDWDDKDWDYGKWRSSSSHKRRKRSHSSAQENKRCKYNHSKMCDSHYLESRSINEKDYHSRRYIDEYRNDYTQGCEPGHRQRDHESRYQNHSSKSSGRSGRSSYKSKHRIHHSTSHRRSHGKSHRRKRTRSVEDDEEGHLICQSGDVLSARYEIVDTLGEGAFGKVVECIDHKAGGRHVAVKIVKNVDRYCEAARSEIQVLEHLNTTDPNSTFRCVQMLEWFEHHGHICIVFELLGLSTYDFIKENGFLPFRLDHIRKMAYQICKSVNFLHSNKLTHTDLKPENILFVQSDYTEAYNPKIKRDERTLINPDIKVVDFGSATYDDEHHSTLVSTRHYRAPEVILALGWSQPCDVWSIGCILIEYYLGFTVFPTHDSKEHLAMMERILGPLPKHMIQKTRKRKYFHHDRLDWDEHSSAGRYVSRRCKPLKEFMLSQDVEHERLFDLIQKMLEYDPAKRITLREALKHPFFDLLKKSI

[3] = molecular target: Dual specificity tyrosine-phosphorylation-regulated kinase 1A (Rattus norvegicus) (UniProt Q63470); assay: Inhibition of GST-fused rat recombinant DYRK1A expressed in Escherichia coli using myelin basic protein as substrate at 10 uM after 30 mins in presence of [gamma33P] ATP by scintillation counting
[4] = organism: Sus scrofa; assay: Inhibition of porcine brain CK1delta/epsilon using RRKHAAIGpSAYSITA as substrate at 10 uM after 30 mins in presence of [gamma33P] ATP by scintillation counting
[5] = molecular target: Glycogen synthase kinase-3 (Sus scrofa) (UniProt B2LUN4+I6LNT8); assay: Inhibition of porcine brain GSKalpha/beta using GS-1 as substrate at 10 uM after 30 mins in presence of [gamma33P] ATP by scintillation counting

Compound: Nc1ncc2cc3cnccc3c(N)c2n1
inhibition [1]: 70%
inhibition [2]: 100%
inhibition [3]: 99%
inhibition [4]: 76%
inhibition [5]: 54%

Compound: Nc1ncc2c(Br)c3cnccc3c([N+](=O)[O-])c2n1
inhibition [1]: 0%
inhibition [2]: 28%
inhibition [3]: 76%
inhibition [4]: 34%
inhibition [5]: 41%

Compound: CCCCc1c2cnccc2c([N+](=O)[O-])c2nc(N)ncc12
inhibition [1]: 91%
inhibition [2]: 31%
inhibition [3]: 86%
inhibition [4]: 57%
inhibition [5]: 100%

Compound: CCc1c2cnccc2c(N)c2nc(N)ncc12
inhibition [1]: 61%
inhibition [2]: 31%
inhibition [3]: 65%
inhibition [4]: 84%
inhibition [5]: 79%

Compound: CCCCc1c2cnccc2c(N)c2nc(N)ncc12
inhibition [1]: 0%
inhibition [2]: 31%
inhibition [3]: 52%
inhibition [4]: 42%
inhibition [5]: 34%

Compound: Nc1ncc2cc3cnccc3c([N+](=O)[O-])c2n1
inhibition [1]: 44%
inhibition [2]: 98%
inhibition [3]: 95%
inhibition [4]: 91%
inhibition [5]: 75%

Compound: CCc1c2cnccc2c([N+](=O)[O-])c2nc(N)ncc12
inhibition [1]: 96%
inhibition [2]: 31%
inhibition [3]: 80%
inhibition [4]: 87%
inhibition [5]: 98%

Compound: Cc1c2cnccc2c([N+](=O)[O-])c2nc(N)ncc12
inhibition [1]: 88%
inhibition [2]: 30%
inhibition [3]: 82%
inhibition [4]: 83%
inhibition [5]: 78%

Next, values leading:

inhibition [1]: 25%
inhibition [2]: 30%
inhibition [3]: 53%
inhibition [4]: 49%
inhibition [5]: 74%
Compound: Nc1ncc2c(-c3ccccc3)c3cnccc3c([N+](=O)[O-])c2n1

inhibition [1]: 4%
inhibition [2]: 29%
inhibition [3]: 49%
inhibition [4]: 76%
inhibition [5]: 12%
Compound: Nc1ncc2c(Cc3ccccc3)c3cnccc3c(N)c2n1

inhibition [1]: 33%
inhibition [2]: 32%
inhibition [3]: 49%
inhibition [4]: 55%
inhibition [5]: 25%
Compound: Nc1ncc2c(-c3ccccc3)c3cnccc3c(N)c2n1

inhibition [1]: 54%
inhibition [2]: 30%
inhibition [3]: 90%
inhibition [4]: 70%
inhibition [5]: 43%
Compound: Cc1c2cnccc2c(N)c2nc(N)ncc12

inhibition [1]: 2%
inhibition [2]: 37%
inhibition [3]: 40%
inhibition [4]: 64%
inhibition [5]: 14%
Compound: Nc1ncc2c(Cc3ccccc3)c3cnccc3c([N+](=O)[O-])c2n1
